# In patent US10328114B2, “Lung injury repair compositions and methods” (University of Iowa Research Foundation, priority 2015, dated 2019):
# Entries after “also recorded” stand apart in the source; their conditions may differ. *: point of attachment. Myristoyl = CCCCCCCCCCCCCC(=O)*
# Legend:
# PKCζ = biological target: T1, PKCζ (Mus musculus, UniProt Q02956); assay: PKCζ activation (p-PKCζ) in lungs, bleomycin induced ALI mouse model, Western blot and immunofluorescence; assay type: in vivo; details: for activation of PKC-ζ in vivo: lungs harvested at 1, 3 and 6 weeks, Western blot and immunofluorescence
# T1 construct: from tissue; host or cells: lungs of C57BL/6 mice (lung homogenates and frozen lung sections)
# T1 sequence (Q02956 1-592): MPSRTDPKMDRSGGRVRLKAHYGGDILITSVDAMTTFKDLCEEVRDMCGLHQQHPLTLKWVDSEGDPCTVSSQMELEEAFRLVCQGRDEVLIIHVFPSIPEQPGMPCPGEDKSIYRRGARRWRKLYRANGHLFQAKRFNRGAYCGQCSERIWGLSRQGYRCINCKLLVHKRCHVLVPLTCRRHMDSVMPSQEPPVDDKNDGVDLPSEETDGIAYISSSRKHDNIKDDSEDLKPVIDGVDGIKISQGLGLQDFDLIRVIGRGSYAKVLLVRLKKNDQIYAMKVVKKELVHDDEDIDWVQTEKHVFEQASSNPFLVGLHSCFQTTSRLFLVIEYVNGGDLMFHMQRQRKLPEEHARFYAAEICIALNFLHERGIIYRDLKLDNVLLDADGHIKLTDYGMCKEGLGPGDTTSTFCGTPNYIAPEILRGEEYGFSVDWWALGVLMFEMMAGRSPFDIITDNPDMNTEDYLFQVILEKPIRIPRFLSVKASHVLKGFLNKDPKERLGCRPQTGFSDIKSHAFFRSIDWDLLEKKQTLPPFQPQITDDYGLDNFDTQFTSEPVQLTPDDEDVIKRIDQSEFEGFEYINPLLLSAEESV
# Procedure: Mice were randomly divided into four groups: (i) control: PBS plus DMSO (1 μl/mouse) (ii) PKC-ζ pseudosubstrate inhibitor (PKC-ζ ps) (1 μg/mouse suspended in DMSO), a pharmacological inhibitor that competes for the pseudosubstrate domain which give specificity to several PKCζ isoforms (Hofmann, J. (1997). “The potential for isoenzyme-selective modulation of protein kinase C.” FASEB J 11(8): 649-669); (iii) bleomycin: bleomycin suspended in PBS (4 U/kg); and (iv) Bleomycin+PKCζi: bleomycin (4 U/kg) plus (1 μg/mouse) PKCζi. The above conditions were administered intratracheally (50 μL) to 6-8 wk-old mice after 2-5 min of anesthesia with 4% isoflurane via a precision Fortec vaporizer (Cyprane, Keighley, UK). Treatment with DMSO or PKCζi was administered every 72 hours and followed for up to 6 weeks. At 1, 3, and 6 weeks mice were euthanized and lungs harvested.
# (§1) Animal protocols were approved by the Institutional Animal Care and Use Committee at the University of Iowa. C57BL/6 mice (Jackson Laboratories, Bar Harbor, Me.) were anesthetized followed by intratracheal instillation of: (A) Control (Ctrl): 1 μl of DMSO (Sigma, St. Louis, Mo.) plus 49 μl of PBS; (B) Bleomycin (Bleo): 1 μl of DMSO plus 49 μl of bleomycin (APP pharmaceuticals, LLC Schaumburg, Ill.) dissolved in PBS (4 U/kg); (C) Bleomycin/PKCζi (Bleo/PKCζi): 1 μg of PKCζi (Calbiochem EMD Biosciences, San Diego, Calif.) solubilized in 1 μl of DMSO plus 49 μl of bleomycin (4 U/Kg) dissolved in PBS (Calbiochem EMD Biosciences, San Diego, Calif.). After this treatment, all mice were instilled (50 μl) every 72 hours with 1 μl of DMSO plus 49 μl of PBS in the Ctrl and Bleo group or with 1 μg of PKCζi dissolved in 1 μl of DMSO plus 49 μl of PBS in the Bleo/PKCζi group for the duration of the experiment. Mice were treated for up to 6 weeks (FIG. 1A). All conditions had between 4 to 6 animals.
# Western blot analysis was performed using Phospho-(Ser) PKCζ substrate rabbit monoclonal antibody (Cell Signaling, Beverly, Mass.), total PKCζ rabbit polyclonal antibody (Santa Cruz Biotechnology, Dallas, Tex.) and mature surfactant protein C (SPC) rabbit polyclonal antibody (Seven Hill Bioreagents, Cincinnati, Ohio).
# (§2) After dissection, immunofluorescence labeling was performed on frozen mouse lung tissue sections with polyclonal anti p-PKCζ (Santa Cruz Biotechnology, Dallas, Tex.) or monoclonal β4 antibody (Clone 346-11a, BD Biosciences, San Jose, Calif.) (23). In addition, Terminal deoxynucleotidyltransferase dUTP nick end labeling (TUNEL) staining was performed on week 1 mouse lung tissue sections (24).
# [1] = tested on: BALF isolated cells from bleomycin treated mice; assay: ROS production (extracellular H2O2) of BALF cells, p-hydroxyphenylacetate method; assay type: in vivo, mouse; details: week 1 post initial instillation
# Procedure: as §1
# BALF cells from week 1 post initial instillation were determined by the p-hydroxyphenylacetate method as reported previously (25).
# [2] = tested on: bleomycin induced lung inflammation; assay: Lung inflammation and cell death in bleomycin ALI model (BALF cell and neutrophil count, IL-1β, TUNEL); assay type: in vivo, mouse
# Procedure: as §1, §2
# Bronchoalveolar lavage was performed as previously described (18). Total cell count was examined by hemocytometer and the percent of neutrophils cells in the bronchoalveolar lavage fluid (BALF) by cytospin slides stained with Wright's-Giemsa. Total protein concentration was measured by Bradford assay (Bio-Rad, Hercules, Calif.).
# Mouse IL-1β and active transforming growth factor beta (TGFβ) were measured using an ELISA from R&D Biosystems (Minneapolis, Minn.).
# [3] = tested on: surfactant protein C (SPC); assay: Surfactant protein C (SPC) by Western blot in bleomycin ALI model; assay type: in vivo, mouse
# Procedure: (4) PKC-ζi partially preserves lung compliance. Briefly, trachea was surgically exposed and tracheal cannula (18 gauge, Angiocath, Becton Dickinson, Sandy, Utah, USA) placed and secure in the lumen. The mice were paralyzed using intraperitoneal rocuronium (1 mg/Kg) to prevent spontaneous breathing and mechanically ventilated on a computer controlled respirator (flexiVent, SCIREQ Inc., Montreal, Canada). The ventilator was set up to deliver tidal volume 6 ml/kg for 10 minutes; respiratory rate of 150 breaths/min; 3 cmH2O positive end expiratory pressure (PEEP). The compliance was determined using the maneuver Pressure-volume ramp volume regulated (PVrV) to calculate the Quasi-static compliance. […] Since lung compliance is the product of an intact epithelial barrier and surfactant production, and PKCζ have been reported to be involved in surfactant production (Gobran et al., (1998). “PKCζ isoforms and other signaling proteins involved in surfactant secretion in developing rat type II cells.” Am J Physiol 274(6 Pt 1): L901-907), the inventors decided to examine by Western blot analysis total amount of SPC in BALF. […] Therefore, our results are likely due to preservation of the alveolar epithelial barrier.
# Animal protocols were approved by the Institutional Animal Care and Use Committee at the University of Iowa. […]
substance,measurement,setting,value
N-Myristoyl-Ser-Ile-Tyr-Arg-Arg-Gly-Ala-Arg-Arg-Trp-Arg-Lys-Leu-OH (Myristoyl-SIYRRGARRWRKL-OH; SMILES CCCCCCCCCCCCCC(=O)N[C@@H](CO)C(=O)N[C@H](C(=O)N[C@@H](Cc1ccc(O)cc1)C(=O)N[C@@H](CCCNC(=N)N)C(=O)N[C@@H](CCCNC(=N)N)C(=O)NCC(=O)N[C@@H](C)C(=O)N[C@@H](CCCNC(=N)N)C(=O)N[C@@H](CCCNC(=N)N)C(=O)N[C@@H](Cc1c[nH]c2ccccc12)C(=O)N[C@@H](CCCNC(=N)N)C(=O)N[C@@H](CCCCN)C(=O)N[C@@H](CC(C)C)C(=O)O)[C@@H](C)CC) [PKCζi],activation of PKC-ζ in vivo,PKCζ,prevents activation of PKCζ in vivo
same,activation of PKC-ζ in vivo,PKCζ; listed as PKC-ζi,prevented the activation of PKC-ζ
same,"p-PKCζ / total PKCζ, Western blot densitometry of lung homogenates","PKCζ; week 1, PKCζi 1 μg intratracheal every 72 hours, vs Bleo group",prevented bleomycin induced increased ratio p-PKC/total PKCζ; also recorded: decreased p-PKCζ at week 1 compared to Bleo group
same,p-PKCζ immunostaining intensity in lung,"PKCζ; week 3 and 6, vs bleomycin group",did not have any increase in p-PKCζ at week 3; also recorded: decreased intensity in the Bleo/PKCζi group compared to bleomycin group at week 3 and 6
same,ROS production / extracellular hydrogen peroxide (H2O2) of BALF cells,[1],does not reduce extracellular hydrogen peroxide (H2O2) in BALF isolated cells from bleomycin treated mice lung
same,ROS production / extracellular hydrogen peroxide (H2O2) of BALF cells,[1]; listed as PKC-ζi,did not prevent ROS production in bleomycin treated mice
same,bleomycin induced inflammatory response,[2]; Example 1,did not prevent increase in inflammatory response
same,apoptotic cells by TUNEL+ staining,[2]; week 1 lung sections,did not prevent the increase in apoptotic cells by TUNEL^+ staining
same,BALF cell count,[2]; week 1 post injury,neither prevented the increase in BALF cell and neutrophil count
same,BALF neutrophil concentration / count,[2]; week 1 post injury,neither prevented the increase in BALF cell and neutrophil count; also recorded: does not decrease bleomycin induced increase in the BALF neutrophil concentration
same,IL-1β in BALF,[2]; week 1 post injury,nor prevented the increase in IL-1β concentration; also recorded: does not decrease IL-1β release into BALF
same,total amount of SPC in BALF (Western blot),[3]; Example 1,did not prevent a reduction in SPC
same,total SPC in whole lungs (Western blot),"[3]; week 1, Example 2",did not prevent the reduction in SPC caused by bleomycin injury; also recorded: does not prevent total SPC decrease in the lungs
